Measured values published in patent US12679878B2, “CRF2 receptor agonists and their use in therapy” (SANOFI, priority 2020, dated 2026).
Like-named read-outs stand apart in the source and are kept apart here. Starred links: 1 amine or outer side, 2 acyl side, 3 side chain; linkers in the order of their positions; H or OH if unused. Non-standard residues stand in square brackets, D forms with d. Residues, ends and D or L forms follow the SMILES beside them. Groups on a side chain read outwards from the residue. *: point of attachment. C18 diacid = O=C(O)CCCCCCCCCCCCCCCCC(=O)*; γGlu = O=C(O)[C@H](CCC(=O)[*:2])N[*:1]; Palmitoyl = CCCCCCCCCCCCCCCC(=O)*; AEEA = NCCOCCOCC(=O)O; Aib = CC(C)(N)C(=O)O

Legend:
human CRF2α receptor = target: T1, human CRF2α receptor (Homo sapiens, UniProt Q13324); test: cAMP agonism at human CRF2 α receptor in TeloHEAC cells (Example 7); assay type: cell-based; details: cAMP HTRF, TeloHEAC cells stably expressing human CRF2 α
T1 construct: expressed in transfected cells; host or cells: TeloHEAC
T1 sequence (Q13324 1-411): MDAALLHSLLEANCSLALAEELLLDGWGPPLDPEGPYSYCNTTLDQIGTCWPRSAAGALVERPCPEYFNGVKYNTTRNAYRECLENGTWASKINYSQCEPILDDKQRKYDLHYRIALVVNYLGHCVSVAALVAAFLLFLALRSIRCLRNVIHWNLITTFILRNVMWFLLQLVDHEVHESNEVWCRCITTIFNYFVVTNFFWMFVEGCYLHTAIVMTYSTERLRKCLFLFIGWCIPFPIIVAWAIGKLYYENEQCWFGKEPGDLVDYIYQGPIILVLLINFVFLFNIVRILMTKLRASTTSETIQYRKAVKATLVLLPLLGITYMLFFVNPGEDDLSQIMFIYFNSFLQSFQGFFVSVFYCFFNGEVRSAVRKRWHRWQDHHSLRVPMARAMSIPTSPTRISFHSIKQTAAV
Outline: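 Steps: thaw and wash cells; suspend in 1×HBSS, 20 mM HEPES, 0 or 0.1% HSA, 2 mM IBMX; add compound, 30 min RT; lyse with HTRF reagents, 1 h; read 665/620 nm. EC50 calculated, E% versus 1000 nM UCN2.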

CRF1R receptor = target: T2, CRF1R receptor (Homo sapiens, UniProt P34998); test: cAMP activity at anti-target CRF1R, CHO-K1 cell line clone 2 (Example 19.10); assay type: cell-based; details: CRF1R CHO-K1 clone 2; for EC50: 0% HSA, read-out: EC50 [nM] 0% HSA; for Emax: 100% = Sauvagine at 100 nM
T2 construct: host or cells: CHO-K1 clone 2
T2 sequence (P34998 24-415): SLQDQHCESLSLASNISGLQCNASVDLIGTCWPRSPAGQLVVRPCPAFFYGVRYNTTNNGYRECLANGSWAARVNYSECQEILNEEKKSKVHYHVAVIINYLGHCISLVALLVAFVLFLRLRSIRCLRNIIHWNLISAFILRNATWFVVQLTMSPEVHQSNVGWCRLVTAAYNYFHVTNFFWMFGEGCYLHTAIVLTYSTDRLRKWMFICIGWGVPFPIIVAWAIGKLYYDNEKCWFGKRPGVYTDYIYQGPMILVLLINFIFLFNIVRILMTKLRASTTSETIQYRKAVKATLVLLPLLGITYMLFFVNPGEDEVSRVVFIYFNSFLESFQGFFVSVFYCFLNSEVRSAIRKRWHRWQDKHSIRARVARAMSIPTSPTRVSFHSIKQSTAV
Protocol: The CRF1R-overexpression CHO-K1 cell line clone 2 was purchased from PerkinElmer.
Cells were grown in a 10 cm dish at 37° C./5% CO2 in medium (F12 (Hams)/10% FBS/400 μg/ml G418) to near confluence. At that stage, cells were harvested, resuspended to 10 million/mL in culture medium without G418 and with 10% DMSO. 1 mL vial aliquots were slowly frozen to -80° C. in isopropanol and then transferred in liquid nitrogen for storage. These vials were used to run the experiment following the procedure reported 10 in the previous paragraph, except for the compound used in the control well to define the 100% activation (Sauvagine at 100 nM)

[1] = 0% HSA, read-out: EC50 [nM], 0% HSA
[2] = 0.1% HSA, read-out: EC50 [nM], 0.1% HSA

EC50 (human CRF2α receptor; [1]) [nM]	EC50 (CRF1R receptor) [nM]	Emax (CRF1R receptor) [%]	EC50 (human CRF2α receptor; [2]) [nM]	SMILES
0.14	> 100	8.4		CCCCCCCCCCCCCCCC(=O)N[C@@H](CCC(=O)NCCCC[C@H](NC(=O)[C@H](CC(C)C)NC(=O)[C@H](CCCCN)NC(=O)[C@@H](NC(=O)[C@@H]1CCCN1C(=O)[C@H](NC(=O)[C@H](CC(=O)O)NC(=O)[C@H](CC(C)C)NC(=O)[C@H](CO)NC(=O)[C@H](CC(C)C)NC(=O)[C@@H](NC(=O)[C@@H](N)[C@@H](C)CC)C(C)C)C(C)C)[C@@H](C)O)C(=O)N[C@@H](CCCCN)C(=O)N[C@@H](CCCCN)C(=O)N[C@@H](CC(C)C)C(=O)N[C@@H](CC(C)C)C(=O)N[C@@H](CCCCN)C(=O)N[C@@H](CCC(N)=O)C(=O)N[C@@H](CCC(=O)O)C(=O)N[C@@H](CCCNC(=N)N)C(=O)N[C@@H](CCCCN)C(=O)N[C@@H](CCCNC(=N)N)C(=O)N[C@@H](CCCCN)C(=O)N[C@@H](CCC(=O)O)C(=O)N[C@@H](CCCNC(=N)N)C(=O)N[C@@H](CCC(=O)O)C(=O)N[C@@H](CCCCN)C(=O)N[C@@H](C)C(=O)N[C@@H](CCC(=O)O)C(=O)N[C@@H](CCCCN)C(=O)N[C@@H](C)C(=O)N[C@@H](C)C(=O)N[C@@H](CCCNC(=N)N)C(=O)N[C@H](C(=O)N[C@@H](CC(C)C)C(=O)N[C@@H](CCC(=O)O)C(=O)N[C@@H](CCCNC(=N)N)C(=O)N[C@H](C(N)=O)C(C)C)[C@@H](C)CC)C(=O)O [compound 28] (H-IVLSLD[dV]PTKLK([γGlu-Palmitoyl])KKLLKQERKRKEREKAEKAARILERV-NH2; N-terminus assumed)
0.12	> 100	18.4		CCCCCCCCCCCCCCCC(=O)N[C@@H](CCC(=O)NCCCC[C@H](NC(=O)[C@H](CC(C)C)NC(=O)[C@H](CCCCN)NC(=O)[C@@H](NC(=O)[C@@H]1CCCN1C(=O)[C@H](NC(=O)[C@H](CC(=O)O)NC(=O)[C@H](CC(C)C)NC(=O)[C@H](CO)NC(=O)[C@H](CC(C)C)NC(=O)[C@@H](NC(=O)[C@@H](N)[C@@H](C)CC)C(C)C)C(C)C)[C@@H](C)O)C(=O)N[C@@H](CCCCN)C(=O)N[C@@H](CCCCN)C(=O)N[C@@H](CC(C)C)C(=O)N[C@@H](CC(C)C)C(=O)N[C@@H](CCCCN)C(=O)N[C@@H](CCC(N)=O)C(=O)N[C@@H](CCC(=O)O)C(=O)N[C@@H](CCCNC(=N)N)C(=O)N[C@@H](CCCCN)C(=O)N[C@@H](CCCNC(=N)N)C(=O)N[C@@H](CCCCN)C(=O)N[C@@H](CCC(=O)O)C(=O)N[C@@H](CCCNC(=N)N)C(=O)N[C@@H](CCC(=O)O)C(=O)NC(C)(C)C(=O)N[C@@H](C)C(=O)N[C@@H](CCC(=O)O)C(=O)N[C@@H](CCCCN)C(=O)N[C@@H](C)C(=O)N[C@@H](C)C(=O)N[C@@H](CCCNC(=N)N)C(=O)N[C@H](C(=O)N[C@@H](CC(C)C)C(=O)N[C@@H](CCC(=O)O)C(=O)N[C@@H](CCCNC(=N)N)C(=O)N[C@H](C(N)=O)C(C)C)[C@@H](C)CC)C(=O)O [compound 29] (H-IVLSLD[dV]PTKLK([γGlu-Palmitoyl])KKLLKQERKRKERE[Aib]AEKAARILERV-NH2; N-terminus assumed)
0.68	> 100	2.3	25.7	CC[C@H](C)[C@H](N)C(=O)N[C@H](C(=O)N[C@@H](CC(C)C)C(=O)N[C@@H](CO)C(=O)N[C@@H](CC(C)C)C(=O)N[C@@H](CC(=O)O)C(=O)N[C@H](C(=O)N1CCC[C@H]1C(=O)N[C@H](C(=O)N[C@@H](CCCCN)C(=O)N[C@@H](CC(C)C)C(=O)N[C@@H](CCCCNC(=O)COCCOCCNC(=O)COCCOCCNC(=O)CC[C@H](NC(=O)CCCCCCCCCCCCCCCCC(=O)O)C(=O)O)C(=O)N[C@@H](CCC(N)=O)C(=O)N[C@H](C(=O)N[C@@H](CC(C)C)C(=O)N[C@@H](CC(C)C)C(=O)N[C@@H](CCCCN)C(=O)N[C@@H](CCC(N)=O)C(=O)N[C@@H](CCC(=O)O)C(=O)N[C@@H](CCCNC(=N)N)C(=O)N[C@@H](CCC(N)=O)C(=O)N[C@@H](CCCCN)C(=O)N[C@@H](CCCCN)C(=O)N[C@@H](CCC(N)=O)C(=O)N[C@@H](CCCNC(=N)N)C(=O)N[C@@H](CCC(=O)O)C(=O)N[C@@H](CCCCN)C(=O)N[C@@H](C)C(=O)N[C@@H](CCCCN)C(=O)N[C@H](C(=O)N[C@@H](CC(N)=O)C(=O)NC(C)(C)C(=O)N[C@@H](CCC(N)=O)C(=O)N[C@H](C(=O)N[C@@H](CC(C)C)C(=O)N[C@@H](C)C(=O)N[C@@H](CCC(N)=O)C(=O)N[C@H](C(N)=O)C(C)C)[C@@H](C)CC)[C@@H](C)O)[C@@H](C)CC)[C@@H](C)CC)C(C)C)C(C)C [compound 88] (H-IVLSLDVPIKLK([AEEA-AEEA-γGlu-C18 diacid])QILLKQERQKKQREKAKTN[Aib]QILAQV-NH2; N-terminus assumed)

Second part, the compound before the results:

SMILES	EC50 (human CRF2α receptor; [1]) [nM]	EC50 (CRF1R receptor) [nM]	Emax (CRF1R receptor) [%]	EC50 (human CRF2α receptor; [2]) [nM]
CCCCCCCCCCCCCCCC(=O)N[C@@H](CCC(=O)NCCCC[C@H](NC(=O)[C@H](CC(C)C)NC(=O)[C@H](CCCCN)NC(=O)[C@@H](NC(=O)[C@@H]1CCCN1C(=O)[C@H](NC(=O)[C@H](CC(=O)O)NC(=O)[C@H](CC(C)C)NC(=O)[C@H](CO)NC(=O)[C@H](CC(C)C)NC(=O)[C@@H](NC(=O)[C@@H](N)[C@@H](C)CC)C(C)C)C(C)C)[C@@H](C)O)C(=O)N[C@@H](CCCCN)C(=O)N[C@@H](CCCCN)C(=O)N[C@@H](CC(C)C)C(=O)N[C@@H](CC(C)C)C(=O)N[C@@H](CCCCN)C(=O)N[C@@H](CCC(N)=O)C(=O)N[C@@H](CCC(=O)O)C(=O)N[C@@H](CCCNC(=N)N)C(=O)N[C@@H](CCCCN)C(=O)N[C@@H](CCCNC(=N)N)C(=O)N[C@@H](CCCCN)C(=O)N[C@@H](CCC(=O)O)C(=O)N[C@@H](CCCNC(=N)N)C(=O)N[C@@H](CCC(=O)O)C(=O)N[C@@H](CCC(N)=O)C(=O)N[C@@H](C)C(=O)N[C@@H](CCC(=O)O)C(=O)N[C@@H](CCCCN)C(=O)N[C@@H](C)C(=O)N[C@@H](C)C(=O)N[C@@H](CCCNC(=N)N)C(=O)N[C@H](C(=O)N[C@@H](CC(C)C)C(=O)N[C@@H](CCC(=O)O)C(=O)N[C@@H](CCCNC(=N)N)C(=O)N[C@H](C(N)=O)C(C)C)[C@@H](C)CC)C(=O)O [compound 30] (H-IVLSLD[dV]PTKLK([γGlu-Palmitoyl])KKLLKQERKRKEREQAEKAARILERV-NH2; N-terminus assumed)	0.16	> 100	14.5	
CC[C@H](C)[C@H](N)C(=O)N[C@H](C(=O)N[C@@H](CC(C)C)C(=O)N[C@@H](CO)C(=O)N[C@@H](CC(C)C)C(=O)N[C@@H](CC(=O)O)C(=O)N[C@H](C(=O)N1CCC[C@H]1C(=O)N[C@H](C(=O)N[C@@H](CCCCN)C(=O)N[C@@H](CC(C)C)C(=O)N[C@@H](CCCCNC(=O)COCCOCCNC(=O)COCCOCCNC(=O)CC[C@H](NC(=O)CCCCCCCCCCCCCCCCC(=O)O)C(=O)O)C(=O)N[C@@H](CCC(N)=O)C(=O)N[C@H](C(=O)N[C@@H](CC(C)C)C(=O)N[C@@H](CC(C)C)C(=O)N[C@@H](CCCCN)C(=O)N[C@@H](CCC(N)=O)C(=O)N[C@@H](CCC(=O)O)C(=O)N[C@@H](CCCNC(=N)N)C(=O)N[C@@H](CCC(N)=O)C(=O)N[C@@H](CCCCN)C(=O)N[C@@H](CCCCN)C(=O)N[C@@H](CCC(N)=O)C(=O)N[C@@H](CCCNC(=N)N)C(=O)N[C@@H](CCC(=O)O)C(=O)N[C@@H](CCC(N)=O)C(=O)N[C@@H](C)C(=O)N[C@@H](CCCCN)C(=O)N[C@H](C(=O)N[C@@H](CC(N)=O)C(=O)NC(C)(C)C(=O)N[C@@H](CCC(N)=O)C(=O)N[C@H](C(=O)N[C@@H](CC(C)C)C(=O)N[C@@H](C)C(=O)N[C@@H](CCC(N)=O)C(=O)N[C@H](C(N)=O)C(C)C)[C@@H](C)CC)[C@@H](C)O)[C@@H](C)CC)[C@@H](C)CC)C(C)C)C(C)C [compound 89] (H-IVLSLDVPIKLK([AEEA-AEEA-γGlu-C18 diacid])QILLKQERQKKQREQAKTN[Aib]QILAQV-NH2)	0.3	> 100	3.7	15.6
